Assays:
[1] = target: T1, angiotensin converting enzyme (Oryctolagus cuniculus, UniProt P12822); test: Inhibition of hippuryl-L-histidyl-L-leucine hydrolysis by angiotensin converting enzyme, in vitro; assay type: biochemical, rabbit
T1 construct: A crude angiotensin converting enzyme supernatant is obtained by blending 1 gm. of rabbit lung acetone powder; tissue Pel-Freez Biologicals; host or cells: rabbit lung (acetone powder; crude 40,000 xg supernatant)
T1 sequence (P12822 34-1310): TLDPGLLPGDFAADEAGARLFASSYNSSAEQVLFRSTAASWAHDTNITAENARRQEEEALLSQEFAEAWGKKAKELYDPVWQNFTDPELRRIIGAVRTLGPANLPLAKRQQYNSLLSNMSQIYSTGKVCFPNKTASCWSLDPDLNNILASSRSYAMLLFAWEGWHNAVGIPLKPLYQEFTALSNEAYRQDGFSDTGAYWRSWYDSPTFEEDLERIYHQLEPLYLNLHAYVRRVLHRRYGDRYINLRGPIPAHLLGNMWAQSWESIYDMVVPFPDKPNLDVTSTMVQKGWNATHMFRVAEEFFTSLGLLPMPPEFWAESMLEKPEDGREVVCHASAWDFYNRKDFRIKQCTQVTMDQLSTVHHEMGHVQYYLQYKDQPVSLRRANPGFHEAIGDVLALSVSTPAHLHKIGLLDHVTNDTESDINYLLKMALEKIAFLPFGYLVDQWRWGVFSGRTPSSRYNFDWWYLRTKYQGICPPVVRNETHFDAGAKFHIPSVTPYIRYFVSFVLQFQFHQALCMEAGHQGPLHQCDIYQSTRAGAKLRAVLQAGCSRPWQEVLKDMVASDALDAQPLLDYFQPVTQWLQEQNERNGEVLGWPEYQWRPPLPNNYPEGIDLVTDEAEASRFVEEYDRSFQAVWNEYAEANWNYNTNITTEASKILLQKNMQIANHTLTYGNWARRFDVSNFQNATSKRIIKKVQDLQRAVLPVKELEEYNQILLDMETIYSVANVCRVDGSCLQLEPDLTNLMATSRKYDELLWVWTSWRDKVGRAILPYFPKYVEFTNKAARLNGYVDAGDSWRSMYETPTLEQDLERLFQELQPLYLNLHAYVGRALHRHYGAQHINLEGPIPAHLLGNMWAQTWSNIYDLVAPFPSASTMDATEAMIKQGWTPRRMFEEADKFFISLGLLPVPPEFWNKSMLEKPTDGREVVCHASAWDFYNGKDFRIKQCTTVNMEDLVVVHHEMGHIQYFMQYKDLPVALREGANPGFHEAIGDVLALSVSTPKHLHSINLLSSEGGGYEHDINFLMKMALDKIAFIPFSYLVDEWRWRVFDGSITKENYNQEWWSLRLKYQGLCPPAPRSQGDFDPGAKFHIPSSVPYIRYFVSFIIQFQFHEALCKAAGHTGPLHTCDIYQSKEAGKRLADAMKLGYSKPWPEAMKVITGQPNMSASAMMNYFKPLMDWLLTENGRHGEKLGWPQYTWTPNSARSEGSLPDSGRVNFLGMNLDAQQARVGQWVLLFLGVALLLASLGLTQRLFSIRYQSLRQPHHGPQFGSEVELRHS
Protocol: The activity of the compounds of this invention was established by incubation of hippuryl-L-histidyl-L-leucine at 37° C. with angiotensin converting enzyme by the following procedure:
A crude angiotensin converting enzyme supernatant is obtained by blending 1 gm. of rabbit lung acetone powder (Pel-Freez Biologicals) with 35 ml of 50 mM (buffered) potassium phosphate, pH 8.3 and centrifuging for 45 min. at 40,000 xg.
The specific angiotensin converting enzyme substrate Hippuryl-L-histidyl-L-leucine (HHL--Sigma Chem. Co.) is prepared at 5 mM in 200 mM potassium phosphate buffer containing 757 mM NaCl at pH 8.3.
Incubation for the assay of HHL hydrolysis by angiotensin converting enzyme is carried out in a 37° C. gyrorotary incubator in disposable 13×100 mm tubes. Each 0.25 ml assay mixture contains the following components at the final concentrations: potassium phosphate buffer, 100 mM; NaCl, 300 mM; HHL, 5 mM; and enzyme 0.15 ml (10 mU approx.) added last to initiate the reaction. Zero time controls have 0.25 ml of 2 N HCl added before the enzyme. The timed reactions are terminated with acid at 30 min. similarly and the hippuric acid freed from substrate is extracted into 1.5 ml of ethylacetate by vortex mixing for 15 sec. After 5 min. centrifugation in a clinical centrifuge, a 1.0 ml aliquot of the ethyl acetate layer is transferred to a clean tube. These aliquots are evaporated to dryness by heating (120° C.) in a Temp-Block module heater.
The hippuric acid is resuspended in 1.0 ml of water, the absorbance at 228 nm is determined, and the amount present is calculated from a standard curve. The amount of hippuric acid×1.1 (extraction coefficient)×1.5 (ratio of volumes)×1 μM hippuric acid/[…]×1/30 min.=nM hippuric acid released/min. Enzyme activity in the presence of an inhibitor is compared with control activity, and reported as a percentage inhibition. (Cushman, D. W. and Cheung, H. S., Biochem. Pharmacol. 20 1637 (1971).

[2] = tested on: angiotensin converting enzyme; test: In vivo inhibition of angiotensin converting enzyme: blood pressure responses to i.v. angiotensin I in conscious normotensive rat after oral dosing; details: 10 mg/kg, 10 minutes post dosing, mean two animals
Protocol: The in vitro experiments were confirmed following the procedure of Rubin et al, J. Pharmacol. Exp. Ther 204 721 (1978) whereby jugular vein and carotid artery cannulae are placed in an ether anesthetized, normotensive,male, Spraque-Dawley rat for injection of compounds and direct recording of systemic arterial pressure, respectively. The blood pressure responses in the conscious animal to i.v. injections of angiotensin I (300 ng/kg), angiotensin II (100 ng/kg) and bradykinin (10 μg/kg) are recorded and compared with identical doses administered at various time intervals after oral dosing of the angiotensin converting enzyme inhibitor of this invention.

[3] = tested on: male spontaneously hypertensive rats; test: Blood pressure lowering in spontaneously hypertensive rats (systolic pressure, caudal plethysmograph); assay type: in vivo, rat
Protocol: In addition, the blood pressure lowering ability of the compounds of this invention was established by measuring the systolic pressure of male spontaneously hypertensive rats with a Decker Caudal Plethysmograph. The compounds tested were administered orally and blood pressure was read prior to and at 1.5, 4 and 24 hours after drug administration.

Row | inhibition at 0.1 µg/mL ([1]; 100 ng/ml) [%] | inhibition of angiotensin converting enzyme in vitro ([1]; 100 ng/ml) [%] | inhibition of angiotensin converting enzyme in vitro ([1]; 1000 ng/ml) [%] | inhibition at 0.001 µg/mL ([1]; 1 ng/ml) [%] | inhibition at 0.01 µg/mL ([1]; 10 ng/ml) [%] | inhibition at 0.05 µg/mL ([1]; 50 ng/ml) [%] | SMILES | inhibition in vivo [2] [%] | reduction of systolic blood pressure in spontaneously hypertensive rats ([3]; 50 mg/kg oral dose, four hours after administration) [millimeters] | reduction of systolic blood pressure in spontaneously hypertensive rats ([3]; 50 mg/kg orally administered) [mmHg] | reduction of blood pressure in the rat ([3]; 10 mg/kg, oral) [mmHg]
1 | 72 | – | – | – | – | – | O=C(O)[C@@H]1CC[C@H](c2ccccc2)N1C(=O)CCS (relative stereo) [Example four, cis-1-(3-Mercaptopropanoyl)-5-phenyl proline] | 65 | 21 | – | –
2 | 40 | – | – | – | – | – | COc1ccc([C@H]2CC[C@@H](C(=O)O)N2C(=O)CCS)cc1OC (relative stereo) [Example two, cis-1-(3-Mercaptopropanoyl)-5-(3,4-Dimethoxyphenyl)proline] | 72 | – | 23 | –
3 | – | 3 | 17 | – | – | – | CC(CSC(=O)c1ccccc1)C(=O)N1[C@@H](c2ccccc2)CC[C@H]1C(=O)O (single isomer, unassigned) [α-acid of Example 7, 5-Phenyl-1-(3-benzoylthio-2-methyl-1-oxopropyl)proline] | – | – | – | –
4 | – | 84 | 99 | 20 | 40 | 75 | CC(CSC(=O)c1ccccc1)C(=O)N1[C@@H](c2ccccc2)CC[C@H]1C(=O)O (single isomer, unassigned) [β-acid of Example 7, 5-Phenyl-1-(3-benzoylthio-2-methyl-1-oxopropyl)proline] | – | – | – | 37
